# Reference: PMC12473689, “Drug Metabolism and Pharmacokinetics of Oxazolo[4,5-c]quinoline Analogs as Novel Interleukin-33 Inhibitors” (Pharmaceutics, 2025)
# Structures can show the parent of a compound that is named as a salt.
# What was measured:
# [1] = Binding in mouse liver S9 fraction by equilibrium dialysis (RED); assay type: in vitro ADME; conditions: ICR, mouse, liver S9 fraction, pH 7.4, mouse liver S9, 1 mg/mL protein, equilibrium dialysis 37 °C 4 h, mean ± SD (n = 3); read-out: fu (%) in liver S9 fractions
# Description: (§1) The nonspecific binding of KB-1517 and KB-1518 in human and mouse plasma and liver S9 fractions was determined by equilibrium dialysis using a Rapid Equilibrium Device (RED) system (Thermo Fisher Scientific, Seoul, Republic of Korea).
# (§2) Working solutions (200 μM for plasma, 60 μM for S9 fractions) were prepared in 40% aqueous acetonitrile. These were diluted 20-fold into either plasma or S9 incubation buffer (1 mg/mL protein, 200 mM Tris-HCl, 2 mM MgCl2, pH 7.4) to create the final dosing solutions.
# (§3) For the dialysis, RED inserts (8 kDa MWCO) were used. Into each device, 200 μL of a dosing solution was added to the sample chamber, and 350 μL of PBS was added to the buffer chamber. The plate was sealed and incubated at 37 °C for 4 h on an orbital shaker (100 rpm) to allow the system to reach equilibrium.
# (§4) Following incubation, 50 μL aliquots were taken from both chambers. To ensure analytical consistency, the samples were matrix-matched: the sample chamber aliquot was mixed with 50 μL of PBS, and the buffer chamber aliquot was mixed with 50 μL of the corresponding blank matrix (plasma or S9 incubation buffer). Proteins were then precipitated by adding 200 μL of ice-cold acetonitrile containing diclofenac (1 μg/mL) as IS. The samples were subsequently vortexed, sonicated for 5 min, and centrifuged at 4000× g for 20 min. Finally, a 100 μL aliquot of the resulting supernatant was diluted with 100 μL of HPLC-grade water in a 96-well plate for subsequent LC-MS/MS analysis.
# [2] = Binding in human liver S9 fraction by equilibrium dialysis (RED); assay type: in vitro ADME; conditions: human, liver S9 fraction, pH 7.4, human liver S9, 1 mg/mL protein, equilibrium dialysis 37 °C 4 h, mean ± SD (n = 3); read-out: fu (%) in liver S9 fractions
# Description: as §1, §2, §3, §4
# [3] = Metabolite identification in liver S9 incubations; assay type: in vitro ADME; conditions: S9 1 mg protein/mL, 60 min, 37 °C, H: human, M: mouse
# Description: The incubation mixture (final volume 200 µL) contained: 125 µL of deionized water, 40 µL of Tris mix buffer, 10 µL of 20 mg protein/mL S9 fraction (final concentration 1 mg protein/mL), and 5 µL of the test compound working solution (final concentration 3 µM). The final concentrations of DMSO and acetonitrile were 0.03% and 1%, respectively. The mixture was pre-incubated at 37 °C for 5 min in a shaking water bath. The reaction was initiated by adding 20 µL of the combined cofactor solution (final concentrations: 1 mM NADPH, 0.5 mM UDPGA, 0.1 mM PAPS, 2.5 mM GSH). Control incubations were performed without the cofactor mixture (replaced with buffer) and at 0 min (quenched immediately after adding cofactors). Incubations were carried out at 37 °C for 0, 15, 30, and 60 min (for stability) or 60 min (for metabolite ID). Reactions were terminated by adding 200 µL of ice-cold acetonitrile containing IS (diclofenac).
# Metabolite identification was performed using samples generated from the in vitro liver S9 incubations (final substrate concentration 20 µM, 60 min incubation) and plasma samples from the in vivo IP administration study. Samples were analyzed using an Agilent 6530 Q-TOF LC-MS/MS system (Agilent Technologies Korea Ltd., Seoul, Republic of Korea). Data processing and metabolite identification were performed using Agilent MassHunter Metabolite ID software (ver. B.04.00), searching for expected biotransformations (e.g., oxidation, demethylation, glucuronidation, sulfation, GSH conjugation) and comparing MS/MS fragmentation patterns of metabolites with the parent drug.
# Qualitative analysis for metabolite identification was performed using the same LC system coupled to an Agilent 6530 Q-TOF mass spectrometer system (Agilent Technologies Korea Ltd., Seoul, Republic of Korea) with a dual AJS ESI source operating in positive ion mode. The chromatographic conditions were identical to those used for quantitative analysis.
# The ion source parameters for the mass spectrometer were set as follows: gas temperature 325 °C, gas flow 12 L/min, nebulizer pressure 35 psi, sheath gas temperature 350 °C, and sheath gas flow 10 L/min. Data were acquired in MS scan mode (m/z 100–1000) and targeted MS/MS or Auto MS/MS mode. Data acquisition and processing were performed using Agilent MassHunter Qualitative Analysis (ver. B.05.00) and Metabolite ID software (ver. B.04.00).
# To elucidate the metabolic pathways, metabolite identification studies were conducted using in vitro liver S9 fractions incubations (20 µM substrate) and in vivo plasma samples from mice administered an IP dose (200 µg/mouse). Metabolites were identified based on accurate mass measurements, isotopic patterns, and MS/MS fragmentation patterns compared to the parent compound using LC-Q-TOF MS/MS system (Agilent Technologies Ltd., Seoul, Republic of Korea).
# [4] = Plasma protein binding by equilibrium dialysis (RED), human plasma; assay type: in vitro ADME; conditions: equilibrium dialysis 37 °C 4 h, mean ± SD (n = 3), read-out: fu (%) plasma protein binding
# Description: as §1, §2, §3, §4
# [5] = Plasma protein binding by equilibrium dialysis (RED), mouse plasma; assay type: in vitro ADME; conditions: male, ICR, equilibrium dialysis 37 °C 4 h, mean ± SD (n = 3), read-out: fu (%) plasma protein binding
# Description: as §1, §2, §3, §4
# [6] = system: flavin-containing monooxygenase (FMO) in HLM; assay: FMO involvement: metabolic stability in control vs heat-inactivated human liver microsomes; assay type: in vitro ADME; conditions: pre-incubated 45 °C for 5 min vs control, 60 min incubation, NADPH
# Description: (§5) To determine the potential involvement of flavin-containing monooxygenase (FMO), a parallel assay was conducted with HLM and MLM [31]. To selectively inactivate FMO, microsomes (20 mg protein/mL) were pre-incubated at 45 °C for 5 min. Non-inactivated microsomes served as the control. Subsequently, metabolic incubations were performed with both control and heat-inactivated microsomes at 37 °C for 60 min. The incubation procedure was identical to that described above for the S9 fractions, with the exception that NADPH was used as the sole cofactor.
# [7] = system: flavin-containing monooxygenase (FMO) in MLM; assay: FMO involvement: metabolic stability in control vs heat-inactivated mouse liver microsomes; assay type: in vitro ADME, male ICR mouse; conditions: pre-incubated 45 °C for 5 min vs control, 60 min incubation, NADPH
# Description: as §5
structure (smiles),measurement,setting,value
"Cc1cc(=O)n(-c2ccccc2)n1C [Antipyrine, antipyrine, reference compound]","fraction unbound at 4 h, 3 µM",[1],0.937 ± 0.011
same,"fraction unbound at 4 h, 3 µM",[2],0.946 ± 0.026
"CCC(C)n1ncn(-c2ccc(N3CCN(c4ccc(OCC5COC(Cn6cncn6)(c6ccc(Cl)cc6Cl)O5)cc4)CC3)cc2)c1=O (stereo not drawn) [Itraconazole, itraconazole, reference compound]","fraction unbound at 4 h, 3 µM",[1],0.019 ± 0.002
same,"fraction unbound at 4 h, 3 µM",[2],0.028 ± 0.006
CNCCn1c(=O)c2nc(-c3ccc(C(F)(F)F)cc3)oc2c2ccccc21 [KB-1517 M1],Species in whose liver S9 the metabolite was detected,[3]; KB-1517 20 µM,"H, M"
C[N+](C)([O-])CCn1c(=O)c2nc(-c3ccc(C(F)(F)F)cc3)oc2c2ccccc21 [KB-1517 M2],Species in whose liver S9 the metabolite was detected,[3]; KB-1517 20 µM,"H, M"
CN(CCO)c1nc2ccccc2c2oc(-c3ccc(C(F)(F)F)cc3)nc12 [KB-1518 M1],Species in whose liver S9 the metabolite was detected,[3]; KB-1518 20 µM,"H, M"
OCCNc1nc2ccccc2c2oc(-c3ccc(C(F)(F)F)cc3)nc12 [KB-1518 M2],Species in whose liver S9 the metabolite was detected,[3]; KB-1518 20 µM,"H, M"
C[N+](C)([O-])CCOc1nc2ccccc2c2oc(-c3ccc(C(F)(F)F)cc3)nc12 [KB-1518 M3],Species in whose liver S9 the metabolite was detected,[3]; KB-1518 20 µM,"H, M"
"CC(C)NCC(O)COc1cccc2ccccc12 (stereo not drawn) [Propranolol, propranolol]","fraction unbound at 4 h, 10 µM",[4],0.262 ± 0.026
same,"fraction unbound at 4 h, 10 µM",[5],0.247 ± 0.005
"CNC(=C[N+](=O)[O-])NCCSCc1ccc(CN(C)C)o1 [Ranitidine, ranitidine]","fraction unbound at 4 h, 10 µM",[4],0.85 ± 0.006
same,"fraction unbound at 4 h, 10 µM",[5],0.888 ± 0.054
"CN(C)CCCOc1nn(Cc2ccccc2)c2ccccc12 [benzydamine, Benzydamine hydrochloride]",Effect of heat inactivation (FMO) on metabolism,[6],significantly inhibited the metabolism
same,Effect of heat inactivation (FMO) on metabolism,[7],significantly inhibited the metabolism
